The series is described as follows: Mice serum protein binding assay (equilibrium dialysis, RED Device). It is filed as in vitro ADME. Conditions: CD-1 (ICR), mouse, pH 7.4, murine serum, 37° C., 5 to 6 hours, read-out: Protein binding rate (converted). On the procedure:
The protein binding rate was determined by equilibrium dialysis method using the RED Device (8K MWCO, Rapid Equilibrium Dialysis Device, Thermo Scientific). The test substances that had been dissolved in DMSO were added to the serum that was collected from Cr1: CD-1 (ICR) mice fasted overnight, so that the final concentration of DMSO became 1% (v/v). The serum to which the test substance had been added was added to the inner side of the dialysis membrane of the RED Device, and PBS (phosphate buffer saline, pH 7.4) containing 0.01% (v/v) Tween 80 was added to the outside in accordance with the method for using the RED Device and incubated at 37° C. for 5 to 6 hours with ellipsoidal shaking at 100 rpm so that the concentration of the unbound test substance in the serum and the concentration of the test substance in the PBS reached equilibrium. […] The proteins were removed from the measurement sample by adding acetonitrile in an amount of 5-fold or more of the amount of the internal standard substance and the serum sample, and the supernatants were measured by LC/MS/MS (liquid chromatograph-triple quadrupole mass spectrometer). The serum samples were measured after suitably diluting with distilled water as necessary. […]
However, in the case when the concentration in the sample was calculated by using a calibration curve, A and B were as follows.

Results on one molecule are retold here after patent publication US10392345B2, “Crystal of salt of novel 3-azabicyclo[3.1.0]hexane derivative and pharmaceutical use thereof” (SANWA KAGAKU KENKYUSHO CO., LTD., priority 2015, dated 2019).

As to `CC[C@]1(c2cccc(NS(C)(=O)=O)c2)[C@@H]2CN(CC3(O)Cc4ccccc4C3)C[C@@H]21` [Comparative Compound 1, N-(3-{(1R,5S,6r)-6-ethyl-3-[(2-hydroxy-2,3-dihydro-1H-inden-2-yl)methyl]-3-azabicyclo[3.1.0]hexan-6-yl}phenyl)methanesulfonamide methanesulfonate], the fraction unbound was 0.068.
